Measurements from paper PMC6001238, “Iterative Chemical Engineering of Vancomycin Leads to Novel Vancomycin Analogs With a High in Vitro Therapeutic Index” (Frontiers in Microbiology, 2018).
≈ marks a conversion by molar mass, not a printed value.

Tests used:
[1] = system: E. faecalis VRE 53; experiment: MIC, broth microdilution, vancomycin-resistant E. faecalis VRE 53 (VanA); format: cell-based, Enterococcus faecalis; settings: for MIC: Enterococcus faecalis VRE 53 (vancomycin-resistant), read-out: MIC; for MIC-fold improvement vs. vancomycin: VRE 53, ratio of MIC of vancomycin and MIC of analogue
Method: (§1) The minimum inhibitory concentration (MIC) was determined using the broth microdilution method according to the antimicrobial susceptibility testing standards of the clinical and laboratory standards institute ([Clinical and Laboratory Standards Institute [CLSI], 2012]). Ultrapure water and non-inoculated broth were used as controls. In one case, a final concentration of 10 μM vancomycin was included with the vancomycin analog or control antibiotic.

[2] = system: MRSA KS2; experiment: MIC, broth microdilution, MRSA KS2; format: cell-based, Staphylococcus aureus
Method: as §1

[3] = system: E. faecalis VRE 37; experiment: MIC, broth microdilution, vancomycin-resistant E. faecalis VRE 37 (VanA); format: cell-based, Enterococcus faecalis; settings: for MIC: Enterococcus faecalis VRE 37 (vancomycin-resistant), read-out: MIC; for MIC-fold improvement vs. vancomycin: VRE 37, ratio of MIC of vancomycin and MIC of analogue
Method: as §1

[4] = system: MRSA KS1; experiment: MIC, broth microdilution, MRSA KS1; format: cell-based, Staphylococcus aureus
Method: as §1

[5] = system: S. aureus VSSA (ATCC 6538); experiment: MIC, broth microdilution, vancomycin-sensitive S. aureus (VSSA/MSSA, ATCC 6538); format: cell-based, Staphylococcus aureus; settings: for MIC: Staphylococcus aureus VSSA, read-out: MIC; for MIC-fold improvement vs. vancomycin: VSSA, ratio of MIC of vancomycin and MIC of analogue
Method: as §1

[6] = system: Murine leukemia (L1210) cells; experiment: Cytostatic activity, L1210 cell proliferation; format: cell-based; settings: mean ± SD of three experiments; highest concentration tested 250 µM; 2 days; read-out: Toxicity (IC50) L1210
Method: (§2) Murine leukemia (L1210), human T-lymphocyte (CEM) and the human cervix carcinoma (HeLa) cell line were suspended at 300,000–500,000 cells/mL of culture medium, and 100 μL of a cell suspension was added to 100 μL of an appropriate dilution of the test compounds in wells of 96-well microtiter plates. After incubation at 37°C for 2 (L1210), 3 (CEM), or 4 (HeLa) days, the cell number was determined using a Coulter counter. The IC50 was defined per cell type as the compound concentration required to inhibit cell proliferation by 50% compared to the negative control ([Glowacka et al., 2017]).

[7] = system: MRSA KS6; experiment: MIC, broth microdilution, MRSA KS6; format: cell-based, Staphylococcus aureus
Method: as §1

[8] = system: E. faecalis VRE 6; experiment: MIC, broth microdilution, vancomycin-resistant E. faecalis VRE 6 (VanA); format: cell-based, Enterococcus faecalis; settings: for MIC: Enterococcus faecalis VRE 6 (vancomycin-resistant), read-out: MIC; for MIC-fold improvement vs. vancomycin: VRE 6, ratio of MIC of vancomycin and MIC of analogue
Method: as §1

[9] = system: L1210, CEM and HeLa cell lines; experiment: Cytostatic activity, average or summary over L1210, CEM and HeLa; format: cell-based; settings: average of L1210, CEM and HeLa; read-out: Toxicity (IC50) Average
Method: as §2

[10] = system: S. aureus VISA/HIP5827; experiment: MIC, broth microdilution, vancomycin-intermediate S. aureus VISA HIP5827; format: cell-based, Staphylococcus aureus; settings: for MIC: Staphylococcus aureus VISA/HIP5827, read-out: MIC; for MIC-fold improvement vs. vancomycin: VISA/HIP5827, ratio of MIC of vancomycin and MIC of analogue
Method: as §1

[11] = system: E. faecalis VSE 1; experiment: MIC, broth microdilution, vancomycin-sensitive E. faecalis (VSE 1); format: cell-based, Enterococcus faecalis; settings: for MIC: Enterococcus faecalis VSE 1 (vancomycin-sensitive), read-out: MIC; for MIC-fold improvement vs. vancomycin: VSE 1, ratio of MIC of vancomycin and MIC of analogue
Method: as §1

[12] = system: human T-lymphocyte (CEM) cells; experiment: Cytostatic activity, CEM cell proliferation; format: cell-based; settings: mean ± SD of three experiments; highest concentration tested 250 µM; 3 days; read-out: Toxicity (IC50) CEM
Method: as §2

[13] = system: human cervix carcinoma (HeLa) cells; experiment: Cytostatic activity, HeLa cell proliferation; format: cell-based; settings: mean ± SD of three experiments; highest concentration tested 250 µM; 4 days; read-out: Toxicity (IC50) HeLa
Method: as §2

[14] = system: E. faecalis VRE 29; experiment: MIC, broth microdilution, vancomycin-resistant E. faecalis VRE 29 (VanA); format: cell-based, Enterococcus faecalis; settings: for MIC: Enterococcus faecalis VRE 29 (vancomycin-resistant), read-out: MIC; for MIC-fold improvement vs. vancomycin: VRE 29, ratio of MIC of vancomycin and MIC of analogue
Method: as §1

[15] = system: MRSA KS89; experiment: MIC, broth microdilution, MRSA KS89; format: cell-based, Staphylococcus aureus; settings: for MIC-fold improvement vs. vancomycin: MRSA KS8, ratio of MIC of vancomycin and MIC of analogue; for MIC: Staphylococcus aureus MRSA KS8, read-out: MIC
Method: as §1

[16] = system: S. aureus VRSA; experiment: MIC, broth microdilution, vancomycin-resistant S. aureus (VRSA); format: cell-based, Staphylococcus aureus; settings: for MIC: Staphylococcus aureus VRSA, read-out: MIC; for MIC-fold improvement vs. vancomycin: VRSA, ratio of MIC of vancomycin and MIC of analogue
Method: as §1

| Compound | MIC [1] | MIC-fold improvement vs. vancomycin [1] | MIC [3] | MIC [5] | MIC-fold improvement vs. vancomycin [5] | MIC [8] | MIC-fold improvement vs. vancomycin [8] | MIC [10] | MIC-fold improvement vs. vancomycin [10] | MIC [11] | MIC-fold improvement vs. vancomycin [11] | MIC [14] | MIC-fold improvement vs. vancomycin [14] | MIC-fold improvement vs. vancomycin [15] | MIC [15] | MIC-fold improvement vs. vancomycin [3] | IC50 [6] | IC50 [9] | IC50 [12] | IC50 [13] | other results |
| --- | --- | --- | --- | --- | --- | --- | --- | --- | --- | --- | --- | --- | --- | --- | --- | --- | --- | --- | --- | --- | --- |
| CN[C@H](CC(C)C)C(=O)N[C@H]1C(=O)N[C@@H](CC(N)=O)C(=O)N[C@H]2C(=O)N[C@H]3C(=O)N[C@H](C(=O)N[C@H](C(=O)NCCNC(=O)/C=C/c4ccc(OC)cc4)c4cc(O)cc(O)c4-c4cc3ccc4O)[C@H](O)c3ccc(c(Cl)c3)Oc3cc2cc(c3O[C@@H]2O[C@H](CO)[C@@H](O)[C@H](O)[C@H]2O[C@H]2C[C@](C)(N)[C@H](O)[C@H](C)O2)Oc2ccc(cc2Cl)[C@H]1O [Vanc-36] | 50 µM (≈ 82.6 µg/mL) | 8 | 12.5 µM (≈ 20.6 µg/mL) | 0.39 µM (≈ 0.644 µg/mL) | 2 | 1.56 µM (≈ 2.58 µg/mL) | 128 | 0.39 µM (≈ 0.644 µg/mL) | 16 | 0.39 µM (≈ 0.644 µg/mL) | 4 | 12.5 µM (≈ 20.6 µg/mL) | 32 | 1 | 0.78 µM (≈ 1.29 µg/mL) |  | > 250 µM | 196 µM | > 250 µM | 89 ± 18 µM | MIC-fold improvement vs. vancomycin ([2]; MRSA KS2, ratio of MIC of vancomycin and MIC of analogue): 2; MIC ([2]; Staphylococcus aureus MRSA KS2, read-out: MIC): 0.39 µM (≈ 0.644 µg/mL); MIC-fold improvement vs. vancomycin ([4]; MRSA KS1, ratio of MIC of vancomycin and MIC of analogue): 1; MIC ([4]; Staphylococcus aureus MRSA KS1, read-out: MIC): 0.78 µM (≈ 1.29 µg/mL); MIC-fold improvement vs. vancomycin ([7]; MRSA KS6, ratio of MIC of vancomycin and MIC of analogue): 2; MIC ([7]; Staphylococcus aureus MRSA KS6, read-out: MIC): 0.39 µM (≈ 0.644 µg/mL) |
| CNC(CC(C)C)C(=O)NC1C(=O)NC(CC(N)=O)C(=O)NC2C(=O)NC3C(=O)NC(C(=O)NC(C(=O)NCC(=O)Nc4ccc(C(=O)NCCCN(C)C)cc4)c4cc(O)cc(O)c4-c4cc3ccc4O)C(O)c3ccc(c(Cl)c3)Oc3cc2cc(c3OC2OC(CO)C(O)C(O)C2OC2CC(C)(N)C(O)C(C)O2)Oc2ccc(cc2Cl)C1O (stereo not shown) [Vanc-82] | 50 µM (≈ 85.5 µg/mL) | 8 | >50 µM | 1.56 µM (≈ 2.67 µg/mL) | 0.5 | 6.25 µM (≈ 10.7 µg/mL) | 32 | >12.5 µM | <0.5 | 1.56 µM (≈ 2.67 µg/mL) | 1 | >50 µM | <8 | 1 | 0.78 µM (≈ 1.33 µg/mL) | <8 | > 250 µM | > 250 µM | > 250 µM | > 250 µM | MIC [16]: 3.13 µM (≈ 5.35 µg/mL); MIC-fold improvement vs. vancomycin [16]: 32 |
| CCCCCCCC[N+](C)(C)CCCNC(=O)c1ccc(NC(=O)CNC(=O)C2NC(=O)C3NC(=O)C(NC(=O)C4NC(=O)C(CC(N)=O)NC(=O)C(NC(=O)C(CC(C)C)NC)C(O)c5ccc(c(Cl)c5)Oc5cc4cc(c5OC4OC(CO)C(O)C(O)C4OC4CC(C)(N)C(O)C(C)O4)Oc4ccc(cc4Cl)C3O)c3ccc(O)c(c3)-c3c(O)cc(O)cc32)cc1 (stereo not shown) [Vanc-81] | 25 µM | 16 | 25 µM | 0.39 µM | 2 | ≤0.39 µM | >512 | 6.25 µM | 1 | 0.78 µM | 2 | 25 µM | 16 | 4 | 0.20 µM | 16 | 164 ± 6 µM | 179 µM | > 250 µM | 122 ± 13 µM | MIC [16]: 0.78 µM; MIC-fold improvement vs. vancomycin [16]: 128 |

Now from value to compound, other results behind:

| MIC [1] | MIC-fold improvement vs. vancomycin [1] | MIC [3] | MIC [5] | MIC-fold improvement vs. vancomycin [5] | MIC [8] | MIC-fold improvement vs. vancomycin [8] | MIC [10] | MIC-fold improvement vs. vancomycin [10] | MIC [11] | MIC-fold improvement vs. vancomycin [11] | MIC [14] | MIC-fold improvement vs. vancomycin [14] | MIC-fold improvement vs. vancomycin [15] | MIC [15] | MIC-fold improvement vs. vancomycin [3] | Compound | IC50 [6] | IC50 [9] | IC50 [12] | IC50 [13] | other results |
| --- | --- | --- | --- | --- | --- | --- | --- | --- | --- | --- | --- | --- | --- | --- | --- | --- | --- | --- | --- | --- | --- |
| 50 µM | 8 | 50 µM | 0.78 µM | 1 | 6.25 µM | 32 | 6.25 µM | 1 | 1.56 µM | 1 | 50 µM | 8 | 1 | 0.78 µM | 8 | CCCCC[N+](C)(C)CCCNC(=O)c1ccc(NC(=O)CNC(=O)C2NC(=O)C3NC(=O)C(NC(=O)C4NC(=O)C(CC(N)=O)NC(=O)C(NC(=O)C(CC(C)C)NC)C(O)c5ccc(c(Cl)c5)Oc5cc4cc(c5OC4OC(CO)C(O)C(O)C4OC4CC(C)(N)C(O)C(C)O4)Oc4ccc(cc4Cl)C3O)c3ccc(O)c(c3)-c3c(O)cc(O)cc32)cc1 (stereo not shown) [Vanc-80] | 230 ± 3 µM | 239 µM | > 250 µM | 238 µM | MIC [16]: 1.56 µM; MIC-fold improvement vs. vancomycin [16]: 64 |
| 50 µM (≈ 98.9 µg/mL) | 8 | 50 µM (≈ 98.9 µg/mL) | 0.78 µM (≈ 1.54 µg/mL) | 1 | 3.13 µM (≈ 6.19 µg/mL) | 64 | 3.13 µM (≈ 6.19 µg/mL) | 2 | 0.78 µM (≈ 1.54 µg/mL) | 2 | 50 µM (≈ 98.9 µg/mL) | 8 | 1 | 0.78 µM (≈ 1.54 µg/mL) | 8 | CNC(CC(C)C)C(=O)NC1C(=O)NC(CC(N)=O)C(=O)NC2C(=O)NC3C(=O)NC(C(=O)NC(C(=O)NCC(=O)Nc4ccc(-c5cnnn5C5OC(COC(C)=O)C(OC(C)=O)C(OC(C)=O)C5OC(C)=O)cc4)c4cc(O)cc(O)c4-c4cc3ccc4O)C(O)c3ccc(c(Cl)c3)Oc3cc2cc(c3OC2OC(CO)C(O)C(O)C2OC2CC(C)(N)C(O)C(C)O2)Oc2ccc(cc2Cl)C1O (stereo not shown) [Vanc-78] | > 250 µM | 186 µM | > 250 µM | 57 ± 32 µM | MIC [16]: 3.13 µM (≈ 6.19 µg/mL); MIC-fold improvement vs. vancomycin [16]: 32 |
| 3.13 µM (≈ 5.16 µg/mL) | 128 | 3.13 µM (≈ 5.16 µg/mL) | 0.78 µM (≈ 1.29 µg/mL) | 1 | 3.13 µM (≈ 5.16 µg/mL) | 64 | 0.39 µM (≈ 0.643 µg/mL) | 16 | 0.78 µM (≈ 1.29 µg/mL) | 2 | 3.13 µM (≈ 5.16 µg/mL) | 128 |  |  | 128 | CCCC#Cc1ccc(NC(=O)CNC(=O)C2NC(=O)C3NC(=O)C(NC(=O)C4NC(=O)C(CC(N)=O)NC(=O)C(NC(=O)C(CC(C)C)NC)C(O)c5ccc(c(Cl)c5)Oc5cc4cc(c5OC4OC(CO)C(O)C(O)C4OC4CC(C)(N)C(O)C(C)O4)Oc4ccc(cc4Cl)C3O)c3ccc(O)c(c3)-c3c(O)cc(O)cc32)cc1 (stereo not shown) [Vanc-68] | 42 ± 14 µM | 39 µM | 19 ± 1 µM | 55 ± 20 µM | MIC [16]: 1.56 µM (≈ 2.57 µg/mL); MIC-fold improvement vs. vancomycin [16]: 64 |
